The target of series [1] is T1, bacterial NAD synthetase enzyme (Bacillus subtilis, UniProt P08164).
T1 sequence (P08164 2-272 limits assumed): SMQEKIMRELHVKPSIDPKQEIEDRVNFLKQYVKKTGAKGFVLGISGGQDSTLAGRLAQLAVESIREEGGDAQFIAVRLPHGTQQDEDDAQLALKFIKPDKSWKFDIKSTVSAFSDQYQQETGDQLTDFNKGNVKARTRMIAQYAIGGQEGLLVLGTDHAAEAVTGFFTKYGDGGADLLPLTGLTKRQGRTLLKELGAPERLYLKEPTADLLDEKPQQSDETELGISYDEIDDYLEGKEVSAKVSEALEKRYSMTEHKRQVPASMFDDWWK
Briefly: biochemical. It counts as biochemical.

The test system of series [2] is Salmonella typhimurium LT2 TT366. In words: Standard antibiotic paper disk assay, zone of inhibition. It counts as cell-based. The following applies: 250 μg on 6 or 7 mm paper disk; minimal-glucose plate; gram −. On the procedure: (§1) To determine initially if a compound found active in the assays, Compound 864, was also an effective inhibitor of a variety of different bacteria, a standard antibiotic assay was performed. In this assay 250 μg of Compound 864 ([…] in DMSO) was spotted on 6 or 7 mm paper disks. Each disk was placed on separate 30 ml solid-medium plates layered with bacteria Blood agar plates were used for Streptococcus, and minimal-glucose plates were used for the other microorganisms in Table 306. DMSO controls provided negative results.

The test system of series [3] is Escherichia coli K-12 MG1655 (CGSC#6300). The series is described as above. The following applies: 250 μg on 6 or 7 mm paper disk; minimal-glucose plate; gram −. It counts as cell-based. On the procedure: as §1
For series [4], the system named is Bacillus subtilis A700. The description is as above. It counts as cell-based. The following applies: 250 μg on 6 or 7 mm paper disk; minimal-glucose plate; gram +. On the procedure: as §1
The test system of series [5] is Escherichia coli K-12 W3110 (CGSC#4474). Described as above. It counts as cell-based. Conditions: 250 μg on 6 or 7 mm paper disk; minimal-glucose plate; gram −. Here is the method: as §1
For series [6], the system named is Streptococcus pneumoniae WU2. The description is as above. It counts as cell-based. The following applies: 250 μg on 6 or 7 mm paper disk; blood agar plate; gram +. On the procedure: as §1
The test system of series [7] is Staphylococcus epidermitis. Briefly: Bacterial growth inhibition screen in LB media (absorbance 595 nm), percent inhibition. The following applies: S. epidermitis; concentration screened 100 uM.
Series [8] relates to Streptococcus pneumonia D39. Briefly: Standard antibiotic paper disk assay, zone of inhibition. It counts as cell-based, Streptococcus pneumoniae. Conditions: 250 μg on 6 or 7 mm paper disk; blood agar plate; gram +. On the procedure:
as §1

Series [9] deals with T1, bacterial NAD synthetase enzyme. The following applies: 2 mL Assay (cuvette); substrate; double reciprocal plots.
Substrate in series [10]: Nc1ncnc2c1ncn2[C@@H]1O[C@H](COP(=O)(O)OP(=O)(O)OP(=O)(O)O)[C@@H](O)[C@H]1O
In words: purified protein, by the assay type. Conditions: substrate, pH 8.5.

[11] abbreviates: other: 2 mL Assay (cuvette), double reciprocal plots.

Where two headings read alike, the source gives them in different places.

As for `C[n+]1cccc(C(=O)OCCCCCn2ccc3cc([N+](=O)[O-])ccc32)c1` [Compound 864], the % Inhibition – broadly, the share of the control response that was lost under treatment – in series [1] (compound at 0.2 mM (Table 312A)) stood at 19.33%; in series [7], 87.03%. The “ZONE OF INHIBITION” value in [2] stood at 10 mm; in [3] it was 9.5 mm; in series [4], 19.5 mm; in series [5], 9.5 mm; in series [6], 15 mm; in series [8] it was 12 mm.

On to `Nc1ncnc2c1ncn2[C@@H]1O[C@H](COP(=O)(O)OP(=O)(O)OC[C@H]2O[C@@H]([n+]3cccc(C(=O)O)c3)[C@H](O)[C@@H]2O)[C@@H](O)[C@H]1O` [NaAD, nictonic acid dinucleotide, reference compound], for which the Km (as a rule, the concentration of substrate that gives half-maximal velocity) turned out to be 76 µM in series [1] (0.2 mL Assay (microtiter plate), substrate) and 75 µM in [9]. Also, the Vmax (as a rule, the rate approached at saturating substrate) in series [9] was 286 nM/s.

B1: bacterial NAD synthetase enzyme (Bacillus subtilis subsp. subtilis str. 168) (protein)
chain: SMQEKIMRELHVKPSIDPKQEIEDRVNFLKQYVKKTGAKGFVLGISGGQDSTLAGRLAQLAVESIREEGGDAQFIAVRLPHGTQQDEDDAQLALKFIKPDKSWKFDIKSTVSAFSDQYQQETGDQLTDFNKGNVKARTRMIAQYAIGGQEGLLVLGTDHAAEAVTGFFTKYGDGGADLLPLTGLTKRQGRTLLKELGAPERLYLKEPTADLLDEKPQQSDETELGISYDEIDDYLEGKEVSAKVSEALEKRYSMTEHKRQVPASMFDDWWK
Consider B1, for which the Km stood at 152 µM in series [10] (other: 0.2 mL Assay (microtiter plate)) and 120 µM in series [10] (setting [11]). Besides, the maximal velocity (Vmax) in series [10] (setting [11]) was determined as 436 nM/s.
